Data from patent US20170369444A1, “INHIBITORS OF HISTONE DEMETHYLASES” (Gilead Sciences, Inc., priority 2014, published 2017).

Legend:
Assay type in all cases: biochemical
[1] = biological target: T1, KDM4C (JMJD2C) (Homo sapiens, UniProt Q9H3R0); assay: Histone lysine demethylase AlphaLISA assay, KDM4C; settings: in vitro enzyme, read-out: KDM4C IC50 (HDME Inhibition)
T1 construct: 1-349; host or cells: E. coli
T1 sequence (Q9H3R0 1-349): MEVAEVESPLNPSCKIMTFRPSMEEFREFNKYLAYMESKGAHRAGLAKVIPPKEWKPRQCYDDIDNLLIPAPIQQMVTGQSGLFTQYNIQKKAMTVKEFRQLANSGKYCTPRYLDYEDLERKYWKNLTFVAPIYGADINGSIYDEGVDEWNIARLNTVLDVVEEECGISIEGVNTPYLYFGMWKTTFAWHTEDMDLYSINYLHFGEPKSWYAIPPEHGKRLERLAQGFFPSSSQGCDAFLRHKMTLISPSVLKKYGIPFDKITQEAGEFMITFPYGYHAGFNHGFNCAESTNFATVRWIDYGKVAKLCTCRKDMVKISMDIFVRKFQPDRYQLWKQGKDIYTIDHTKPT
Description: Histone lysine demethylase AlphaLISA assays are performed to determine IC50 values. […] Assays are performed analogously to the protocol described by PerkinElmer (Roy et al. PerkinElmer Technical Note: AlphaLISA #12, April 2011).
Assays are performed analogously to the protocol described by PerkinElmer (Roy et al. PerkinElmer Technical Note: AlphaLISA #12, April 2011).
Enzymes (final assay concentration 0.1-2.5 nM) are dissolved in enzyme buffer and incubated for 10 min before 5 μL is added to 5 μL 3% DMSO solutions of compounds in enzyme buffer, incubated for another 10 minutes, before 5 μL substrate solution is added and the reaction mixture is incubated at room temperature. 10 μL acceptor beads, suspended Epigenetic Buffer (Perkin Elmer AL008) from stock, are added and the suspension is incubated in the dark at room temperature, before 10 μL suspension of streptavidin donor beads (Perkin Elmer 6760002) in Epigenetic Buffer is added. After incubation at room temperature in the dark the plates are read.
Substrate solution: Substrate (final assay concentration 50-200 nM), 50 mM Hepes (pH 7.4-8.0), 0.003% Tween-20, 0.1% BS, 25 μM L-Asc, 10 μM α-KG. Enzyme Buffer: 50 mM Hepes (pH 7.4-8.0), 0.003% Tween-20, 0.1% BSA; 5 μM (NH4)2Fe(SO4)2

[2] = biological target: T2, KDM2B (FBXL10) (Homo sapiens, UniProt Q8NHM5); assay: Histone lysine demethylase AlphaLISA assay, KDM2B; settings: in vitro enzyme, read-out: KDM2B IC50 (HDME Inhibition)
T2 construct: 1-650; purchased BPS Bioscience, US; host or cells: Bac (baculovirus/insect cells)
T2 sequence (Q8NHM5 1-650): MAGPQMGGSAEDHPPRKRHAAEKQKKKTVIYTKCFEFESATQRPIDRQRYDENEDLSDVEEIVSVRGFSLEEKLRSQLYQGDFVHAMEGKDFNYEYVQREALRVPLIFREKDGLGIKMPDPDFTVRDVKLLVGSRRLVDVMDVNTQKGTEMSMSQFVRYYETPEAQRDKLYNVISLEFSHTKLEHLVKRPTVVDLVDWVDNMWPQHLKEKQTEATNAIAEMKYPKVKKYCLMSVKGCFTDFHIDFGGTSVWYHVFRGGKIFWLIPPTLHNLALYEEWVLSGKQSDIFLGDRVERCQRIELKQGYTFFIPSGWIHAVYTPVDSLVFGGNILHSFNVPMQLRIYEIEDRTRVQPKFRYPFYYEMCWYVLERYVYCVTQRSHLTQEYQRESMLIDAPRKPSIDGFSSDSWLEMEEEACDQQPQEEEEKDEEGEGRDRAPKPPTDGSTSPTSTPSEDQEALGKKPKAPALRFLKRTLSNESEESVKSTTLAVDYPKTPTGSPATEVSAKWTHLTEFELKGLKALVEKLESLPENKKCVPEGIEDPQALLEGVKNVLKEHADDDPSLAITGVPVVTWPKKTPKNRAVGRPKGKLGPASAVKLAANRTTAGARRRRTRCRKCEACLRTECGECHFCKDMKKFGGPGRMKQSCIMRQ

[3] = biological target: T3, KDM5B (PLU-1) (Homo sapiens, UniProt Q9UGL1); assay: Histone lysine demethylase AlphaLISA assay, KDM5B; settings: in vitro enzyme, read-out: KDM5B IC50 (HDME Inhibition)
T3 construct: 1-809; host or cells: E. coli
T3 sequence (Q9UGL1 1-809): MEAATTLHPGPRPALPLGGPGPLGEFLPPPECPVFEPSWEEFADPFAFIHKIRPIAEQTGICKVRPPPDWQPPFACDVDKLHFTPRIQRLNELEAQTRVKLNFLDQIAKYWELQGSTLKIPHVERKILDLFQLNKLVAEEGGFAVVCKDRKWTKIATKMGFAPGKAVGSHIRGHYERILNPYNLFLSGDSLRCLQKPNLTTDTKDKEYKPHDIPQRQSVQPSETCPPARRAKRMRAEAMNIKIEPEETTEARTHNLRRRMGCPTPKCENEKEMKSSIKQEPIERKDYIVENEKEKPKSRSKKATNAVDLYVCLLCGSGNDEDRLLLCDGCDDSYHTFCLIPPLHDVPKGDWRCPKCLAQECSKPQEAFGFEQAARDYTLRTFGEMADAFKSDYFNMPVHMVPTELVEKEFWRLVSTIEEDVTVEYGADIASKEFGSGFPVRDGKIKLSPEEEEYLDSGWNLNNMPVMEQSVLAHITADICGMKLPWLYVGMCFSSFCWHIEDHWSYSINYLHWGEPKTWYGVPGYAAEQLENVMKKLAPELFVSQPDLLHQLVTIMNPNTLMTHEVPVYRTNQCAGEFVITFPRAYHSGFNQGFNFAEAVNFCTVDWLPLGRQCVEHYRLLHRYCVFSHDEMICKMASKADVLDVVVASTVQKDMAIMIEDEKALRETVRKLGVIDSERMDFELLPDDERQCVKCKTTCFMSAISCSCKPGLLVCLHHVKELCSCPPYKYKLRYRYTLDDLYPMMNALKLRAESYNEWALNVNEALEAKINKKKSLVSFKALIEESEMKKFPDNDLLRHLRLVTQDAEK

[4] = biological target: T4, KDM6A (UTX) (Homo sapiens, UniProt O15550); assay: Histone lysine demethylase AlphaLISA assay, KDM6A; settings: in vitro enzyme, read-out: KDM6A IC50 (HDME Inhibition)
T4 construct: 919-1401; host or cells: E. coli
T4 sequence (O15550 919-1401): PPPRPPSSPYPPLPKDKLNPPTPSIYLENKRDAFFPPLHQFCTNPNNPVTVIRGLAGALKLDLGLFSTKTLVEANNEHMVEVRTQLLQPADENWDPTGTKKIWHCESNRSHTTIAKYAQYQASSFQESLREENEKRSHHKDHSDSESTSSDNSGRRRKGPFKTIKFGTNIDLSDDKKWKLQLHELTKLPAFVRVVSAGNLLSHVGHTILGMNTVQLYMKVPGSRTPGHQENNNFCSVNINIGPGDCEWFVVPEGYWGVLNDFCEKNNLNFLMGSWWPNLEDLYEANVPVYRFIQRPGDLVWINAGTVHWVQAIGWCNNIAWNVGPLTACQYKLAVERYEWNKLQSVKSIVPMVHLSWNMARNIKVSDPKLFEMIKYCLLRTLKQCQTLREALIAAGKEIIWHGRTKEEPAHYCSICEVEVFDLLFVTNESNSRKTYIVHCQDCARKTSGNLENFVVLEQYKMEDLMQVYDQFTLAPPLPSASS

[5] = biological target: PHF8 (KDM7) (Homo sapiens, UniProt Q9UPP1); assay: Histone lysine demethylase AlphaLISA assay, PHF8; settings: in vitro enzyme, read-out: PHF8 IC50 (HDME Inhibition)
Chain of PHF8 (KDM7) (Q9UPP1 whole entry): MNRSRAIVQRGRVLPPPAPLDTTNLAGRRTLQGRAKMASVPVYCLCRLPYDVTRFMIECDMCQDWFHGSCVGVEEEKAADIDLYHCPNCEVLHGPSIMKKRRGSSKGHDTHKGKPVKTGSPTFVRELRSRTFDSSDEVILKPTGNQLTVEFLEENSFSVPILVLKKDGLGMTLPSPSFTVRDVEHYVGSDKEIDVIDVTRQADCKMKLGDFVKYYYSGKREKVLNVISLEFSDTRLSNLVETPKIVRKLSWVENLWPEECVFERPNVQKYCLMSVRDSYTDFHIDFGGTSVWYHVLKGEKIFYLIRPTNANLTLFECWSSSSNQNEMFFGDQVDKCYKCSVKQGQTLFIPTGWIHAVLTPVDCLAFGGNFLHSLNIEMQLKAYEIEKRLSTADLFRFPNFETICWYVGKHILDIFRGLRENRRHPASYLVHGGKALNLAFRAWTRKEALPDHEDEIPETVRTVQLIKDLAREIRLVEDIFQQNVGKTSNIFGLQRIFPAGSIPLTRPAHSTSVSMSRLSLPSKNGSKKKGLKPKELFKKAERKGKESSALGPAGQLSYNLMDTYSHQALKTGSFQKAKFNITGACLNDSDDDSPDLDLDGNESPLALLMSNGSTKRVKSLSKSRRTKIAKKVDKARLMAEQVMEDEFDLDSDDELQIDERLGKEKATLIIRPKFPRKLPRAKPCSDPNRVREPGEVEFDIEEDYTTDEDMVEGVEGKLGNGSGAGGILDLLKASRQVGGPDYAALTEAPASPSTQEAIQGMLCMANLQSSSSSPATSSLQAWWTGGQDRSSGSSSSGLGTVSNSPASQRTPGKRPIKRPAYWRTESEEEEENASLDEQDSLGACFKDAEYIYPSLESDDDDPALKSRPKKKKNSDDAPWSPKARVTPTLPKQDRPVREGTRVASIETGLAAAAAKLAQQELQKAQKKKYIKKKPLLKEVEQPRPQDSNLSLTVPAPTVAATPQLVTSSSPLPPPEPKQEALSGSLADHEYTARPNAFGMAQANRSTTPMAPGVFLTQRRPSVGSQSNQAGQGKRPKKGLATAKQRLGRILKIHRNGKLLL

Row | SMILES | IC50 [1] | IC50 [2] | IC50 [3] | IC50 [4] | IC50 [5]
1 | C=CCN(CC=C)C(=O)[C@@H](CCCCN(CCC)C(=O)OC(C)(C)C)NCc1cc(C(=O)O)ccn1 [Compound 4, 2-({[(1R)-1-[bis(prop-2-en-1-yl)carbamoyl]-5-{[(tert-butoxy)carbonyl](propyl)amino}pentyl]amino}methyl)pyridine-4-carboxylic acid] | > 2500 nM | 250 to 2500 nM | > 2500 nM |  | 
2 | C=CCN(CC=C)C(=O)[C@H](CC(=O)NCCCN(C)C)NCc1cc(C(=O)O)ccn1 [Compound 10, 2-({[(1S)-1-[bis(prop-2-en-1-yl)carbamoyl]-2-{[3-(dimethylamino)propyl]carbamoyl}ethyl]amino}methyl)pyridine-4-carboxylic acid] | > 2500 nM | > 2500 nM | < 250 nM |  | 
3 | C=CCN(CC=C)C(=O)[C@H](CCCCN(C)C(C)=O)NCc1cc(C(=O)O)ccn1 [Compound 21, 2-({[(1S)-1-[bis(prop-2-en-1-yl)carbamoyl]-5-(N-methylacetamido)pentyl]amino}methyl)pyri-dine-4-carboxylic acid] | > 2500 nM |  | 250 to 2500 nM | > 2500 nM | 
4 | CC(C)C[C@H](CO)NC(C)c1cc(C(=O)O)ccn1 (stereo partly drawn) [Compound 33, 2-(1-{[(2R)-1-hydroxy-4-methylpentan-2-yl]amino}ethyl)pyridine-4-carboxylic acid] | > 2500 nM |  | 250 to 2500 nM | > 2500 nM | 
5 | CSCC(NCC(=O)N1CCCCC1)c1cc(C(=O)O)ccn1 (stereo not shown) [Compound 42, 2-[2-(methylsulfanyl)-1-{[2-oxo-2-(piperidin-1-yl)ethyl]amino}ethyl] pyridine-4-carboxylic acid] | > 2500 nM |  | > 2500 nM | > 2500 nM | 
6 | O=C(O)c1ccnc(CN2CCCn3ccnc3C2)c1 [Compound 53, 2-{5H,6H,7H,8H,9H-imidazo[1,2-a][1,4]diazepin-8-ylmethyl}pyridine-4-carboxylic acid] | 250 to 2500 nM |  |  | > 2500 nM | > 2500 nM
7 | Cc1cn2c(n1)CCN(Cc1cc(C(=O)O)ccn1)CCC2 [Compound 67, 2-({2-methyl-5H,6H,7H,8H,9H,10H-imidazo[1,2-a][1,5]diazocin-8-yl}methyl)pyridine-4-carboxylic acid] | > 2500 nM |  | > 2500 nM | > 2500 nM | 
8 | CCNC(=O)C[C@@H]1CCCCN1Cc1cc(C(=O)O)ccn1 [Compound 71, 2-{[(2S)-2-[(ethylcarbamoyl)methyl]piperidin-1-yl]methyl}pyridine-4-carboxylic acid] | > 2500 nM |  | > 2500 nM | > 2500 nM | 
9 | O=C(O)c1ccnc(CN2CCCC[C@@H]2CC(=O)N2CCCCC2)c1 [Compound 72, 2-{[(2R)-2-[2-oxo-2-(piperidin-1-yl)ethyl]piperidin-1-yl]methyl}pyridine-4-carboxylic acid] | > 2500 nM |  | > 2500 nM | > 2500 nM | 
10 | O=C(O)c1ccnc(CNC2CCn3ccnc32)c1 (stereo not shown) [Compound 93, 2-[({5H,6H,7H-pyrrolo[1,2-a]imidazol-7-yl}amino)methyl]pyri-dine-4-carboxylic acid] | 250 to 2500 nM |  | < 250 nM | > 2500 nM | 
11 | O=C(O)c1ccnc(CNC2CCCc3cccnc32)c1 (stereo not shown) [Compound 94, 2-{[(5,6,7,8-tetrahydroquinolin-8-yl)amino]methyl} pyridine-4-carboxylic acid] | > 2500 nM |  | > 2500 nM | > 2500 nM | 
12 | O=C(O)c1ccnc(CNC2CCc3cccnc32)c1 (stereo not shown) [Compound 98, 2-[({5H,6H,7H-cyclopenta[b]pyridin-7-yl}amino)methyl]pyri-dine-4-carboxylic acid] | 250 to 2500 nM | 250 to 2500 nM | < 250 nM |  | 
13 | CCN1CCC[C@@H](CNCc2cc(C(=O)O)ccn2)C1=O [Compound 104, 2-[({[(3S)-1-ethyl-2-oxopiperidin-3-yl]methyl}amino)methyl]pyridine-4-carboxylic acid] | 250 to 2500 nM |  | < 250 nM | > 2500 nM | 250 to 2500 nM

Second part, the compound after the results:

Row | IC50 [1] | IC50 [2] | IC50 [3] | IC50 [4] | IC50 [5] | SMILES
14 | < 250 nM |  | < 250 nM | > 2500 nM |  | O=C(O)c1cnnc(CNCC(=O)N2CCCCC2)c1 [Compound 26, 6-({[2-oxo-2-(piperidin-1-yl)ethyl]amino}methyl) pyridazine-4-carboxylic acid]
15 | 250 to 2500 nM | 250 to 2500 nM | 250 to 2500 nM |  |  | CC(NCc1nccs1)c1cc(C(=O)O)ccn1 (stereo not shown) [Compound 41, 2-{1-[(1,3-thiazol-2-ylmethyl)amino]ethyl} pyridine-4-carboxylic acid]
16 | 250 to 2500 nM | 250 to 2500 nM | 250 to 2500 nM |  |  | CC(NCC(=O)N1CCCCC1)c1cc(C(=O)O)ccn1 (stereo not shown) [Compound 48, 2-(1-{[2-oxo-2-(piperidin-1-yl)ethyl]amino}ethyl) pyridine-4-carboxylic acid]
17 | < 250 nM |  |  | > 2500 nM | 250 to 2500 nM | O=C(O)c1ccnc(CN2CCCCn3ccnc3C2)c1 [Compound 51, 2-{5H,6H,7H,8H,9H,10H-imidazo[1,2-a][1,4]diazocin-9-ylmethyl}pyridine-4-carboxylic acid]
18 | < 250 nM |  | < 250 nM | 250 to 2500 nM |  | COc1ccc([C@@H](C)N2CC[C@H](CNCc3cc(C(=O)O)ccn3)C2=O)cc1 [Compound 79, 2-[({[(3R)-1-[(1R)-1-(4-methoxyphenyl)ethyl]-2-oxopyrrolidin-3-yl]methyl}amino)methyl]pyridine-4-carboxylic acid]
19 | < 250 nM |  | < 250 nM | 250 to 2500 nM |  | C[C@H](c1ccccc1)N1CC[C@H](CNCc2cc(C(=O)O)ccn2)C1=O [Compound 82, 2-[({[(3R)-2-oxo-1-[(1R)-1-phenylethyl]pyrrolidin-3-yl]methyl}amino)methyl]pyridine-4-carboxylic acid]
